Reference: ChEMBL document CHEMBL1128833, “Aliphatic replacements of the biphenyl moiety of the nonpeptidyl growth hormone secretagogues L-692,429 and L-692,585” (1995)

species: Rattus norvegicus; test: In vitro Growth hormone releasing activity in rat pituitary cells; weakly active at 1 uM; assay type: functional; details: Pituitary gland cell, read-out: ED50 (the source's name)

For CC(C)(N)CC(=O)N[C@@H]1CCc2ccccc2N(Cc2ccc(-c3ccccc3)c(-c3nn[nH]n3)c2)C1=O, the EC50 was greater than 1000 nM.

species: Rattus norvegicus; test: In vitro Growth hormone releasing activity in rat pituitary cells; assay type: functional, Pituitary gland cell; details: Rattus norvegicus, Pituitary gland cell; read-out: ED50 (the source's name)

First: C[C@@H](O)CNC(C)(C)CC(=O)N[C@@H]1CCc2ccccc2N(CC2CCC(c3ccccc3-c3nn[nH]n3)CC2)C1=O (stereo partly specified)
Second: CC(C)(N)CC(=O)N[C@@H]1CCc2ccccc2N(CC2CCC(c3ccccc3-c3nn[nH]n3)CC2)C1=O (stereo partly specified)
The EC50 of the first is 11-fold lower: 75 nM for the first, 860 nM for the second. The first is the more potent here.

First: C[C@@H](O)CNC(C)(C)CC(=O)N[C@@H]1CCc2ccccc2N(Cc2ccc(-c3ccccc3-c3nn[nH]n3)cc2)C1=O [L-692585]
Second: CC(C)(N)CC(=O)N[C@@H]1CCc2ccccc2N(Cc2ccc(-c3ccccc3-c3nn[nH]n3)cc2)C1=O
The EC50 of the first is 20-fold lower: 3 nM for the first, 60 nM for the second. The first is the more potent here.

Compared with CC(C)(N)CC(=O)N[C@@H]1CCc2ccccc2N(Cc2ccccc2)C1=O, CC(C)(N)CC(=O)N[C@@H]1CCc2ccccc2N(Cc2ccc(-c3ccccc3)cc2)C1=O is 2.3-fold lower in EC50: 7000 nM for the first, 3000 nM for the second. The second is the more potent here.

same assay, conditions: read-out: ED50 (the source's name)

Going from CC(C)(N)CC(=O)N[C@@H]1CCc2ccccc2N(CC2=CCC(c3ccccc3-c3nn[nH]n3)CC2)C1=O (stereo in doubt; 35) to C[C@@H](O)CNC(C)(C)CC(=O)N[C@@H]1CCc2ccccc2N(CC2=CCC(c3ccccc3-c3nn[nH]n3)CC2)C1=O (stereo in doubt; 37), the EC50 falls from 120 nM to 7 nM (17-fold).

Compared with CC(C)(N)CC(=O)N[C@@H]1CCc2ccccc2N(CC2=CCC(c3ccccc3-c3nn[nH]n3)CC2)C1=O (stereo in doubt; 34), C[C@@H](O)CNC(C)(C)CC(=O)N[C@@H]1CCc2ccccc2N(CC2=CCC(c3ccccc3-c3nn[nH]n3)CC2)C1=O (stereo in doubt; 36) is 48-fold lower in EC50: 1200 nM for the first, 25 nM for the second. The second is the more potent here.
